# Test results taken from patent US20050233970A1, “Methods for treating long QT syndrome” (priority 2004, published 2005).
# Like-named read-outs stand apart in the source and are kept apart here. Square brackets hold non-standard residues; d marks the D form. Peptide text beside a SMILES is read from it. dPhe(4-Cl) = N[C@H](Cc1ccc(Cl)cc1)C(=O)O; d2Nal = N[C@H](Cc1ccc2ccccc2c1)C(=O)O; Lys(iPr) = CC(C)NCCCC[C@H](N)C(=O)O; NMeY = CN[C@@H](Cc1ccc(O)cc1)C(=O)O; d3Pal = N[C@H](Cc1cccnc1)C(=O)O
# What was measured:
# testosterone [1] = assay: Study I: plasma testosterone (radioimmunoassay) on ECG study days; type: in vivo, human
# Protocol: Abarelix was given as a dose of 100 mg IM on days 1, 15, 29 and every 28 days thereafter for 48 weeks. […] Plasma testosterone samples were obtained at the same time. All ECG's were analyzed in a blinded fashion to treatment allocation. Each ECG was analyzed in comparison to its respective baseline for heart rate, QRS duration, PR interval, QT interval, and QTc. Concomitant medicines and prior medical history was recorded on all patients. […] If a patient experienced a QTcB of ≧500 msec while on study, therapy was to be discontinued. Laboratory analysis of testosterone and dihydrotestosterone were determined using certified central laboratories and standard radioimmunoessay methods.
# testosterone [2] = assay: Studies II and III: plasma testosterone (radioimmunoassay) on ECG study days; type: in vivo, human
# Protocol: QTcB and QTcF were calculated utilizing standard formulas.^(F)
# Laboratory analysis of testosterone and dihydrotestosterone were determined using certified central laboratories and standard radioimmunoessay methods.
# QT interval [3] = settings: human, in vivo
# Protocol: Abarelix was given as a dose of 100 mg IM on days 1, 15, 29 and every 28 days thereafter for 48 weeks. Prospectively, a standard 12-lead ECG was performed at baseline and on days 85 and 337. Plasma testosterone samples were obtained at the same time. All ECG's were analyzed in a blinded fashion to treatment allocation. Each ECG was analyzed in comparison to its respective baseline for heart rate, QRS duration, PR interval, QT interval, and QTc. Concomitant medicines and prior medical history was recorded on all patients. Patients with a baseline QT of >450 msec were to be excluded from the study. If a patient experienced a QTcB of ≧500 msec while on study, therapy was to be discontinued. […] They are the focus of this report.
# QT interval [4] = settings: human, in vivo; remark: listed apart in the source
# Protocol: Studies II and III required an ECG at baseline and on day 169 and, if the patient continued, on day 365. […] The ECG machine-calculated heart rate and QT interval were entered into a database. QTcB and QTcF were calculated utilizing standard formulas.^(F)
# QTc evaluations included measurement of baseline, post baseline, on-therapy and change from baseline in QTcB and QTcF in each treatment group.
# ECG measurement of QTcB and QTcF were calculated based on standard QT and heart rate measurements. T-tests were used to evaluate intra as well as inter-treatment change from baseline for each treatment group. Comparisons between treatment groups were performed in a pair wise manner.
SMILES,"Testosterone Levels, Median (testosterone [1]; Baseline)","Testosterone Levels, Median (testosterone [1]; Day 85)","Testosterone Levels, Median (testosterone [1]; Day 337)","Testosterone Levels, Median (testosterone [2]; Baseline)","Testosterone Levels, Median (testosterone [2]; Day 169)",QTcB Baseline (QT interval [3]),QTcB On Therapy (QT interval [3]),QTcF Baseline (QT interval [3]),QTcF Change from Baseline (QT interval [3]),QTcF On Therapy (QT interval [3]),QTcB Baseline (QT interval [4]),QTcB On Therapy (QT interval [4]),QTcF Baseline (QT interval [4]),QTcF On Therapy (QT interval [4])
"CC(=O)N[C@H](Cc1ccc2ccccc2c1)C(=O)N[C@H](Cc1ccc(Cl)cc1)C(=O)N[C@H](Cc1cccnc1)C(=O)N[C@@H](CO)C(=O)N(C)[C@@H](Cc1ccc(O)cc1)C(=O)N[C@H](CC(N)=O)C(=O)N[C@@H](CC(C)C)C(=O)N[C@@H](CCCCNC(C)C)C(=O)N1CCC[C@H]1C(=O)N[C@H](C)C(N)=O [Abarelix, abarelix] (Ac-[d2Nal][dPhe(4-Cl)][d3Pal]S[NMeY][dN]L[Lys(iPr)]P[dA]-NH2)",316 ng/dL,23 ng/dL,35 ng/dL,361 ng/dL,14 ng/dL,413.5 (26.8) msec,426.8 (22.9) msec,404.6 (23.5) msec,12.0 (16.2) msec,419.5 (21.3) msec,417.9 (28.6) msec,431.7 (29.8) msec,410.6 (28.1) msec,423.4 (28.0) msec
"CCNC(=O)[C@@H]1CCCN1C(=O)[C@H](CCCNC(=N)N)NC(=O)[C@H](CC(C)C)NC(=O)[C@@H](CC(C)C)NC(=O)[C@H](Cc1ccc(O)cc1)NC(=O)[C@H](CO)NC(=O)[C@H](Cc1c[nH]c2ccccc12)NC(=O)[C@H](Cc1c[nH]cn1)NC(=O)[C@@H]1CCC(=O)N1 [Leuprolide, leuprolide]",,,,342 ng/dL,9 ng/dL,,,,,,421.6 (29.4) msec,441.6 (25.8) msec,414.5 (26.0) msec,432.1 (23.6) msec
